From article PMC11272598, “RG7774 (Vicasinabin), an orally bioavailable cannabinoid receptor 2 (CB2R) agonist, decreases retinal vascular permeability, leukocyte adhesion, and ocular inflammation in animal models” (Frontiers in Pharmacology, 2024)
Several values for one entry are separate records, joined by “and”; a condition that tells them apart may be missing. Identical values can stand only once.

What was measured:
[1] = biological target: T1, endogenous CB2R (Homo sapiens, UniProt P34972); assay: pERK assay in Jurkat cells; type: cell-based
T1 construct: endogenous CB2R in human Jurkat cells; endogenous in cells; host or cells: Jurkat cells
Description: ERK phosphorylation in response to RG7774 treatment was measured in Jurkat cells as described in ([Saroz et al., 2019]) using the AlphaLISA SureFire Ultra p-Erk1/2 assay (PerkinElmer, Waltham, MA, United States). Cells (200,000 per 96 well plate) were seeded in 40 μL RPMI 1640 assay medium (Fisher Scientific, Schwerte, Germany) containing 10% FCS, 2 mM L-Glu, and 25 mM HEPES) and incubated for 1 h at 37°C in 5% CO2. Cells were treated with increasing concentrations of RG7774 in 40 μL assay medium. Plates were shaken for 30 s (sec) at 450 rpm, incubated for 2 min at 37°C in 5% CO2, and placed on ice. Ice-cold lysis buffer (20 μL 5x) (supplied with the assay kit) was added, plates were shaken (500 rpm) for 10 min at 4°C, and 10 μL of lysate was transferred to a 384-well Optiplate (PerkinElmer, Waltham, MA, United States). The AlphaLISA assay was performed according to the manufacturer’s protocol. Plates were read using Tecan Infinite M1000Pro (excitation 680 nm for 100 ms, integration time 300 ms, and emission 615 nm).

[2] = tested on: Jurkat cells; assay: xCELLigence impedance assay in Jurkat cells; type: cell-based, human; details: xCELLigence, 1 h
Description: Background impedance was determined in 96-well RTCA E-plates (Agilent Technologies, Santa Clara, CA, United States) coated with 150 μg/mL fibronectin/H2O (Sigma-Aldrich, St. Louis, MO, United States) and containing 50 μL RPMI 1640 assay medium (Fisher Scientific, Schwerte, Germany) 31870) with 10% fetal calf serum (FCS). Jurkat cells (200,000 cells per well) were seeded in 100 μL of growth medium, allowed to settle for 30 min at RT, and cultured overnight at 37°C and 5% CO2. Dose-response curves were generated by adding increasing concentrations of RG7774 to seeded Jurkat cells and performing impedance measurements (xCelligence RTCA M, Agilent Technologies, Santa Clara, CA, United States) at baseline and 1 h after treatment. Displacement experiments were performed by incubating seeded Jurkat cells with 10 μM SR144528, a CB2R-selective antagonist (Tocris Bioscience, Bristol, United Kingdom) or 10 μM RO6851228 (a CB2R-selective inverse agonist; in-house synthesis) in assay medium overnight at 37°C and 5% CO2. Cells were re-treated with 10 μM SR144528 or […] for 1 h and stimulated with 233 nM RG7774 in assay medium. […] Displacement data are presented as the percentage of the maximal normalized cell index determined after antagonist/inverse agonist treatment relative to the percentage of the normalized cell index at 109 nM RG7774 treatment.

[3] = biological target: T2, Human MAGL (Homo sapiens, UniProt Q99685); assay: Human MAGL assay (U937 cell extracts); type: biochemical; details: RG7774 10 µM; read-out: Mean ± SEM % inhibition of control, Human MAGL
T2 construct: Mouse brain or human U937 cell extracts (ATCC, Manassas, VI, USA); host or cells: U937 cells, 100,000 g supernatant
T2 sequence (Q99685 whole entry): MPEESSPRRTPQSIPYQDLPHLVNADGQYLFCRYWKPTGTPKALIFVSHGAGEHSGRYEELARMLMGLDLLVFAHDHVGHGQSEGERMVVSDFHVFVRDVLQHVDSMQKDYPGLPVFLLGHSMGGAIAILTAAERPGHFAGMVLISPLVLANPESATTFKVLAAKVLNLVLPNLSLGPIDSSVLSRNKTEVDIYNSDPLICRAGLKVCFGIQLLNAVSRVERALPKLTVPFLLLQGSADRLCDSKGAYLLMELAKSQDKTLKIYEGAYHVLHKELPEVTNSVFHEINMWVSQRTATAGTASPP
Description: The final supernatant was incubated with [^3H]-2-OG (10 µM) (ARC, MO, USA) at 37°C for 30 min as previously described, and reactions were stopped with a 2:1 (v/v) mixture of chloroform/methanol. [^3H]-glycerol release in the aqueous phase was measured by scintillation counting. […] Human supernatant (100 µg) was preincubated for 15 min at RT with 8 different concentrations of RG7774 (0.1-500 µM) in the incubation medium.

[4] = GSH adduct formation in human liver microsomes; type: in vitro ADME
Description: GSH adduct formation assays were conducted as previously described. Briefly, RG7774 was incubated with human liver microsomes to form reactive metabolites, and glutathione was added as a nucleophile to convert the reactive metabolites into stable conjugates that could be analyzed by MS.

[5] = biological target: hERG (Homo sapiens, UniProt Q12809); assay: hERG inhibition
Sequence of hERG (Q12809 whole entry): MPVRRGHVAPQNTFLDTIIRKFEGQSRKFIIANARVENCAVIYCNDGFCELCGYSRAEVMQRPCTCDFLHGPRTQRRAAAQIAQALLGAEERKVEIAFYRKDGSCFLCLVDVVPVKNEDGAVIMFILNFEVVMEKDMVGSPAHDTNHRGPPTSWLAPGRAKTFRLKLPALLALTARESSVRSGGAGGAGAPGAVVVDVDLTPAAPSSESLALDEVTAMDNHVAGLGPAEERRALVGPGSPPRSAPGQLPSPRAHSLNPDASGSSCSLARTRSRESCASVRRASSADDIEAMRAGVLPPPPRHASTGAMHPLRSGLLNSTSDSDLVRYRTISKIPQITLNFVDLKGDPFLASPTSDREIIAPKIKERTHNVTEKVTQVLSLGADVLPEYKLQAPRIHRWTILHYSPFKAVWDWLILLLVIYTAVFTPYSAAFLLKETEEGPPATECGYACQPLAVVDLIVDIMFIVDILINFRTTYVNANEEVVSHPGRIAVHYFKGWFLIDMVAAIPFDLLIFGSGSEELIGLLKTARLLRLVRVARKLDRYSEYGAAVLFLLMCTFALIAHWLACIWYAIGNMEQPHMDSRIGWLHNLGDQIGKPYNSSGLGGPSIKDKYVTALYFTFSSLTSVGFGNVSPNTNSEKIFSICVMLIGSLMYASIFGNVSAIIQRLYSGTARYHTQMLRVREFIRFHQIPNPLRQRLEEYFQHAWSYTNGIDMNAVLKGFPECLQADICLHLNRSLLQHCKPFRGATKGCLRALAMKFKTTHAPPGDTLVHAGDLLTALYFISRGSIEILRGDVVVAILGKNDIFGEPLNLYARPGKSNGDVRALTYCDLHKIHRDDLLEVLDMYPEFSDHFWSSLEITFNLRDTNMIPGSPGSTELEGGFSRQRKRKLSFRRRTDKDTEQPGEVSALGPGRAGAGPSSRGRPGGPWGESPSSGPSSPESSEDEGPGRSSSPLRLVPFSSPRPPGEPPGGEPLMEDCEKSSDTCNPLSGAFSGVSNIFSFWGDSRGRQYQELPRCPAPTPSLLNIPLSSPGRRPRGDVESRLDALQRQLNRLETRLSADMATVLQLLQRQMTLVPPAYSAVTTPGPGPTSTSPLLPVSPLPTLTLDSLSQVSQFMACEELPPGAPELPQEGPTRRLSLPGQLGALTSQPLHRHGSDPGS
Description: TABLE 2 Physicochemical and ADMET profile for RG7774.

[6] = biological target: 5-HT1B (h) (Homo sapiens, UniProt P28222); assay: CEREP radioligand binding; details: radioligand [^125I]-CYP (+ 30 μM isoproterenol)
Sequence of 5-HT1B (h) (P28222 whole entry): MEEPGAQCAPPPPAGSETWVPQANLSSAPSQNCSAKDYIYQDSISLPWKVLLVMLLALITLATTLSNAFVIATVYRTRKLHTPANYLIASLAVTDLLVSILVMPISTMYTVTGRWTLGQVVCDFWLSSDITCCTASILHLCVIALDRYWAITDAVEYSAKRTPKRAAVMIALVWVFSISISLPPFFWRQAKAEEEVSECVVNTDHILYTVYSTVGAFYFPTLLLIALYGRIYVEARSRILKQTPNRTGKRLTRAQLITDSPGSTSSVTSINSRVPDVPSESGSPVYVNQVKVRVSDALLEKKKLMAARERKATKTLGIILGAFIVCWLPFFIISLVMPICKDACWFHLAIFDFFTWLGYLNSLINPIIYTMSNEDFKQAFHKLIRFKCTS
Description: (§1) Supplement Table1.docx, table 3: Supplementary Table S3. RG7774 binding to non-CB1R/CB2R receptors, ion channels, transporters, and enzymes (CEREP, Celle l’Evescault, France; http://www.cerep.fr). | column: % inhibition of control SB (n = 2)

[7] = biological target: 5-HT5A (h) (Homo sapiens, UniProt P47898); assay: CEREP radioligand binding; details: radioligand [^3H]-LSD
Sequence of 5-HT5A (h) (P47898 whole entry): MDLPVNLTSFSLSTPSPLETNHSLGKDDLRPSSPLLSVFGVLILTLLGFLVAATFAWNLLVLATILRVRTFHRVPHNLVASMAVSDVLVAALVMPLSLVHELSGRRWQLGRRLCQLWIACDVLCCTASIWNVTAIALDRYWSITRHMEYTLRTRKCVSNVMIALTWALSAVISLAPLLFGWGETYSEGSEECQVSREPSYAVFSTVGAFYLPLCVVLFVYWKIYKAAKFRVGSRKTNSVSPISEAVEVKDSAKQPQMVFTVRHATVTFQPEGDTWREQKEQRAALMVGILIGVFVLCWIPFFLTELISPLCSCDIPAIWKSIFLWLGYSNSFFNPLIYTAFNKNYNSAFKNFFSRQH
Description: as §1

[8] = biological target: A1 (h) (Homo sapiens, UniProt P30542); assay: CEREP radioligand binding; details: radioligand [^3H]-DPCPX
Sequence of A1 (h) (P30542 whole entry): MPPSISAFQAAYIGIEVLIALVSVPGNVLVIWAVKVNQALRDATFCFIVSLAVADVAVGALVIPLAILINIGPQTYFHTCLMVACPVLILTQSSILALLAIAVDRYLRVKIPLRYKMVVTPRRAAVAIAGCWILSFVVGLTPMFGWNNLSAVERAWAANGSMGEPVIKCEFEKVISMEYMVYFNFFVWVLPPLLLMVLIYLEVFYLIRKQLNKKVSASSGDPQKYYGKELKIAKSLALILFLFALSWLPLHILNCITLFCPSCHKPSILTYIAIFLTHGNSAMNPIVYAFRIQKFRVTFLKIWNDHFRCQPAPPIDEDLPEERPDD
Description: as §1

[9] = biological target: A3 (h) (Homo sapiens, UniProt P0DMS8); assay: CEREP radioligand binding; details: radioligand [^125I]-AB-MECA
Sequence of A3 (h) (P0DMS8 whole entry): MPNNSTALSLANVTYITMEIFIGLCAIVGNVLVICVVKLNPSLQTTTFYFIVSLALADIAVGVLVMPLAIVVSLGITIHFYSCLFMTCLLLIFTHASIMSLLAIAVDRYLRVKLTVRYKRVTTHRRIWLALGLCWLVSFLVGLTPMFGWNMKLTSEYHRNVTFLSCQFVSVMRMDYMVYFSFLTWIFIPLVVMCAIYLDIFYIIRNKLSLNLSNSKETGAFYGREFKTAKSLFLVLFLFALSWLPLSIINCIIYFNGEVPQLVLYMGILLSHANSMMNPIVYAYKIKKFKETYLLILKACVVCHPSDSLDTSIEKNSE
Description: as §1

[10] = tested on: BZD (central); assay: CEREP radioligand binding; details: radioligand [^3H]-flunitrazepam
Description: as §1

[11] = biological target: Beta 1 (h) (Homo sapiens, UniProt P08588); assay: CEREP radioligand binding; details: radioligand [^3H](-)CGP 12177
Sequence of Beta 1 (h) (P08588 whole entry): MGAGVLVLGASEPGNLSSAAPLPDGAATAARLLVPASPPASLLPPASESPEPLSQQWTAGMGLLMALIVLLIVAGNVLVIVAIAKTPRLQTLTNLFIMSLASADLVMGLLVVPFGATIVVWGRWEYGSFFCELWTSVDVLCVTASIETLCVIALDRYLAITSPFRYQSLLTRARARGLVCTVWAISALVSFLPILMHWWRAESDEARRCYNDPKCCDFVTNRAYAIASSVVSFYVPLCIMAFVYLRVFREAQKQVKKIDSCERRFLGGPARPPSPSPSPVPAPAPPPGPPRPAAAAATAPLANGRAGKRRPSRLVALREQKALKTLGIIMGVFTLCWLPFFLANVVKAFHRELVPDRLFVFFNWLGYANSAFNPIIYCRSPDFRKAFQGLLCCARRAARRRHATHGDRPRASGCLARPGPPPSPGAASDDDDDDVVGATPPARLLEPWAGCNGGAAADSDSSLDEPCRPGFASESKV
Description: as §1

[12] = biological target: CCK2 (CCKB) (h) (Homo sapiens, UniProt P32239); assay: CEREP radioligand binding; details: radioligand [^125I]-CCK-8s
Sequence of CCK2 (CCKB) (h) (P32239 whole entry): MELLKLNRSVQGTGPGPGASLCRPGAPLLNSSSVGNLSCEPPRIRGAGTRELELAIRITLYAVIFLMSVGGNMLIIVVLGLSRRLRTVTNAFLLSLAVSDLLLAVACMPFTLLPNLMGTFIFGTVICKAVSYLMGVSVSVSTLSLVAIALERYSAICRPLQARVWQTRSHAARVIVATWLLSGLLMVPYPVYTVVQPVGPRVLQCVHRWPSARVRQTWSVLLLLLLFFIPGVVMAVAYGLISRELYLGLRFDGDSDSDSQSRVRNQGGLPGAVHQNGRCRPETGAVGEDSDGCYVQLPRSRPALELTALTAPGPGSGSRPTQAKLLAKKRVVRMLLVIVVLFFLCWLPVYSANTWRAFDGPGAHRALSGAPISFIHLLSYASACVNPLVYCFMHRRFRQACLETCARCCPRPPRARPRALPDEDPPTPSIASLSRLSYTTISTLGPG
Description: as §1

[13] = biological target: GAL1 (Homo sapiens, UniProt P47211); assay: CEREP radioligand binding; details: radioligand [^125I]-galanin
Sequence of GAL1 (P47211 whole entry): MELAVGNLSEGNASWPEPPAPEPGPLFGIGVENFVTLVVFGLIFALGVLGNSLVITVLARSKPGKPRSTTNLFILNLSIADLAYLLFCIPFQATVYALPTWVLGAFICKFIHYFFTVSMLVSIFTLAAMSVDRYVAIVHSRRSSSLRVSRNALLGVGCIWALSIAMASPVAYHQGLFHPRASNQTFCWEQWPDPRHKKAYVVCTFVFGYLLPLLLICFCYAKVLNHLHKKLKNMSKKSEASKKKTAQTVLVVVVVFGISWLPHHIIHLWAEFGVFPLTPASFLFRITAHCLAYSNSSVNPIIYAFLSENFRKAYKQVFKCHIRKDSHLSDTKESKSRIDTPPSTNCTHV
Description: as §1

[14] = biological target: MC4 (h) (Homo sapiens, UniProt P32245); assay: CEREP radioligand binding; details: radioligand [^125I]-NDP-α-MSH
Sequence of MC4 (h) (P32245 whole entry): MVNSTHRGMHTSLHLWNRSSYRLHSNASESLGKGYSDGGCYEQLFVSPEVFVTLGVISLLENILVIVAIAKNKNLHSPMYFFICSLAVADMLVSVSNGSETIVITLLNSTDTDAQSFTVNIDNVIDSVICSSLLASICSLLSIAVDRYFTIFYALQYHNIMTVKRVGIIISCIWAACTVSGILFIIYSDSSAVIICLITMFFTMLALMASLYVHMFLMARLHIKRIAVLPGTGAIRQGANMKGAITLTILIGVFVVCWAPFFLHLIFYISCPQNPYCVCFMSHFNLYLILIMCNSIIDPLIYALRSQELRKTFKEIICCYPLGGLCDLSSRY
Description: as §1

[15] = biological target: NOP (ORL1) (h) (Homo sapiens, UniProt P41146); assay: CEREP radioligand binding; details: radioligand [^3H]-nociceptin
Description: as §1

[16] = tested on: P2X; assay: CEREP radioligand binding; details: radioligand [^3H]-α,β-MeATP
Description: as §1

[17] = biological target: PPARγ (h) (Homo sapiens, UniProt P37231); assay: CEREP radioligand binding; details: radioligand [^3H]-rosiglitazone
Sequence of PPARγ (h) (P37231 whole entry): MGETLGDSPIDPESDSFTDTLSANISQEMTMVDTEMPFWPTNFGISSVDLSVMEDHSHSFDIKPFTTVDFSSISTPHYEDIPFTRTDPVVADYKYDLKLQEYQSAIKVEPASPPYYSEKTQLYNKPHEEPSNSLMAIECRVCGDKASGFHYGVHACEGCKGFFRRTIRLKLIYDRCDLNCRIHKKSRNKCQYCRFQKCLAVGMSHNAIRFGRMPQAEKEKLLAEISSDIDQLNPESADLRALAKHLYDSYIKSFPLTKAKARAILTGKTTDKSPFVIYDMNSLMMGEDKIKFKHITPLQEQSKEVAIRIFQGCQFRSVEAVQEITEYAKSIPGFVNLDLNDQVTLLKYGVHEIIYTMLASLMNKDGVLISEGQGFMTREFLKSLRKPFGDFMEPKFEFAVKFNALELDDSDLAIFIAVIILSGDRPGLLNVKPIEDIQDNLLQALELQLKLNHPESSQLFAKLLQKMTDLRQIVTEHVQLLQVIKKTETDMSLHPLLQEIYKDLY
Description: as §1

## Cn1nnnc1Cn1nnc2c(N3CC[C@H](O)C3)nc(C(C)(C)C)nc21 [RG7774, (S)-1-(5-tert-butyl-3-[(1-methyl-1H-tetrazol-5-yl)methyl]-3H-[1,2,3]triazolo[4,5-d]pyrimidin-7-yl)pyrrolidin-3-ol]
[1]
  EC50: 38.5 ± 15 nM
[2]
  EC50, cell index relative to maximal cell index of RG7774 at 233 nM: 10.8 nM and 10.8 ± 4.2 nM
[3]
  inhibition at 10 µM: -9.7%
[4]
  GSH (human liver microsomes) adducts: none detected
[5]
  IC50: > 20000 nM
[6]
  % inhibition of control SB (n = 2): –10.6%
[7]
  % inhibition of control SB (n = 2): 2.2%
[8]
  % inhibition of control SB (n = 2): 3.6%
[9]
  % inhibition of control SB (n = 2): –0.6%
[10]
  % inhibition of control SB (n = 2): –0.7%
[11]
  % inhibition of control SB (n = 2): –3.1%
[12]
  % inhibition of control SB (n = 2): –7.6%
[13]
  % inhibition of control SB (n = 2): –9.1%
[14]
  % inhibition of control SB (n = 2): –14.5%
[15]
  % inhibition of control SB (n = 2): 2.7%
[16]
  % inhibition of control SB (n = 2): 25.9%
[17]
  % inhibition of control SB (n = 2): 1.7%
